pIC50: −log10 of the molar value.

Human TASK-1 channels, sequence (O14649 whole entry, the tested form may be a part): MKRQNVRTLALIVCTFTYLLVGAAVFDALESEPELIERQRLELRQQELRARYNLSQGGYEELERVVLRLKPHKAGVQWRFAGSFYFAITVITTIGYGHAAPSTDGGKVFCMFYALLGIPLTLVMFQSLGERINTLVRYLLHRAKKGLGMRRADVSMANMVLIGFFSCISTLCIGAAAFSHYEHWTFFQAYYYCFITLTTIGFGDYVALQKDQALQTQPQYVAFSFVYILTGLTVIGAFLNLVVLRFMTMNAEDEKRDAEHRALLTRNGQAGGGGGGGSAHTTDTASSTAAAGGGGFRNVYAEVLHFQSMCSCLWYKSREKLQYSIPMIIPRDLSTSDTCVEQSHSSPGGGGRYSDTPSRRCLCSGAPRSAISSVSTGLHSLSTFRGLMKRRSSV

The assay concerns the target Human TASK-1 channels (Homo sapiens (Human), UniProt O14649). The assay can be described thus: Determination of the activity on the TASK-1 channel in Xenopus oocytes (two-microelectrode voltage clamp). In kind it is cell-based. As to conditions: human TASK-1 expressed in Xenopus oocytes, room temperature; read-out: IC50 value for TASK-1 inhibition. The gist of the method:
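Xenopus oocytes were injected with human TASK-1 cRNA and recorded two days later by two-microelectrode voltage clamp, holding at −90 mV with 500 ms steps to 40 mV. Superfusion used ND96, pH 7.4, at room temperature, with rising compound concentrations; percentage inhibition of control current was fitted to a dose-response curve for IC50.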
In the case of `CC[C@@H](NC(=O)c1cc(C(=O)N[C@H](CC)c2cccc(OC)n2)n2c1COCC2)c1ccc(C(F)(F)F)nc1` [16pb, 3,4-Dihydro-1H-pyrrolo[2,1-c][1,4]oxazine-6,8-dicarboxylic acid 6-{[(R)-1-(6-methoxy-pyridin-2-yl)-propyl]-amide} 8-{[(R)-1-(6-trifluoromethyl-pyridin-3-yl)-propyl]-amide}], the pIC50 is 6.28.

Take `CC[C@H](NC(=O)c1cc(C(=O)N[C@H](CC)c2ccccc2)c2n1CCCC2)c1ccccc1` [16mb, 5,6,7,8-Tetrahydro-indolizine-1,3-dicarboxylic acid 3-[((S)-1-phenyl-propyl)-amide] 1-[((R)-1-phenyl-propyl)-amide]]: the negative-log IC50 (pIC50) was 7.89.

On to `CC[C@@H](NC(=O)c1cc(C(=O)NCCC2CC2)n2c1COCC2)c1ccccc1` [16gk, 3,4-Dihydro-1H-pyrrolo[2,1-c][1,4]oxazine-6,8-dicarboxylic acid 6-[(2-cyclopropyl-ethyl)-amide] 8-[((R)-1-phenyl-propyl)-amide]], for which the pIC50 was 7.44.

On to `CC[C@@H](NC(=O)c1cc(C(=O)N2CC[C@H](Oc3ccc(F)cc3)C2)n2c1COCC2)c1ccccc1` [16fu, 6-[(S)-3-(4-Fluoro-phenoxy)-pyrrolidine-1-carbonyl]-3,4-dihydro-1H-pyrrolo[2,1-c][1,4]oxazine-8-carboxylic acid ((R)-1-phenyl-propyl)-amid], for which the pIC50 is 6.62.

Regarding `CC[C@@H](NC(=O)c1cc(C(=O)N[C@H](CC)c2cnccn2)n2c1COCC2)c1ccccc1` [16hw, 3,4-Dihydro-1H-pyrrolo[2,1-c][1,4]oxazine-6,8-dicarboxylic acid 8-[((R)-1-phenyl-propyl)-amide] 6-[((R)-1-pyrazin-2-yl-propyl)-amide]], the pIC50 was 6.44.

As for `CC[C@@H](NC(=O)c1cc(C(=O)N2CCC[C@@H]2C(=O)OC(C)C)n2c1COCC2)c1ccccc1` [16n], the pIC50 is 6.85.

In the case of `CC[C@@H](NC(=O)c1cc(C(=O)NCc2ccc(F)cc2F)c2n1CCOC2)c1cnccn1` [16ns, 3,4-Dihydro-1H-pyrrolo[2,1-c][1,4]oxazine-6,8-dicarboxylic acid 8-(2,4-difluoro-benzylamide) 6-[((R)-1-pyrazin-2-yl-propyl)-amide]], the pIC50 was 5.51.

In the case of `CC[C@@H](NC(=O)c1cc(C(=O)N2CCC[C@@H]2C)n2c1COCC2)c1cccs1` [16rc, 6-((S)-2-Methyl-pyrrolidine-1-carbonyl)-3,4-dihydro-1H-pyrrolo[2,1-c][1,4]oxazine-8-carboxylic acid ((R)-1-thiophen-2-yl-propyl)amide], the pIC50 was 6.82.

In the case of `CC[C@@H](NC(=O)c1cc(C(=O)N[C@H](CC)c2ccccc2)n2c1COCC2)c1ccccc1` [16i, 3,4-Dihydro-1H-pyrrolo[2,1-c][1,4]oxazine-6,8-dicarboxylic acid bis-[((R)-1-phenyl-propyl)-amide]], the pIC50 was 6.80.

Turning to `CC[C@@H](NC(=O)c1cc(C(=O)N2CCC[C@@H]2C)n2c1COCC2)c1cnc(C(F)(F)F)c(F)c1` [16ck, 6-((S)-2-Methyl-pyrrolidine-1-carbonyl)-3,4-dihydro-1H-pyrrolo[2,1-c][1,4]oxazine-8-carboxylic acid [(R)-1-(5-fluoro-6-trifluoromethyl-pyridin-3-yl)-propyl]-amide], the negative-log IC50 (pIC50) was 6.08.

Regarding `CC[C@@H](NC(=O)c1cc(C(=O)N2CCC[C@@H]2C(C)O)n2c1COCC2)c1ccccc1` (stereo partly drawn) [16ey, 6-[(R)-2-(1-Hydroxy-ethyl)-pyrrolidine-1-carbonyl]-3,4-dihydro-1H-pyrrolo[2,1-c][1,4]oxazine-8-carboxylic acid ((R)-1-phenyl-propyl)-amide], the negative-log IC50 (pIC50) is 5.33.

Regarding `CC[C@@H](NC(=O)c1cc(C(=O)N[C@@H](c2ccccc2)C2CC2)n2c1CCCC2)c1ccccc1` [16mv, 5,6,7,8-Tetrahydro-indolizine-1,3-dicarboxylic acid 3-[((R)-cyclopropyl-phenyl-methyl)-amide] 1-[((R)-1-phenyl-propyl)-amide]], the pIC50 is 7.32.

The record behind these values is patent US9284333B2, “Fused pyrroledicarboxamides and their use as pharmaceuticals” (SANOFI, priority 2012, dated 2016).
